Data reported in patent US20160122340A1, “HISTONE DEACETYLASE INHIBITORS BASED ON DERIVATIVES OF TRICYCLIC POLYHYDROACRIDINE AND ANALOGS POSSESSING FUSED SATURATED FIVE-AND-SEVEN-MEMBERED RINGS” (QUIMATRYX, S.L., priority 2013, published 2016).

How the values were obtained:
Format in all cases: biochemical
[1] = target: T1, Human HDAC3/NcoR2 (Homo sapiens, UniProt O15379); assay: In vitro HDAC3 inhibition, fluorogenic peptide substrate; conditions: read-out: IC50 (μM) HDAC-3
T1 construct: Complex of human HDAC3, full length with C-terminal His tag, MW=49.7 kDa; His (C); purchased BioMol SE-507; host or cells: baculovirus expression system
T1 sequence (O15379 whole entry): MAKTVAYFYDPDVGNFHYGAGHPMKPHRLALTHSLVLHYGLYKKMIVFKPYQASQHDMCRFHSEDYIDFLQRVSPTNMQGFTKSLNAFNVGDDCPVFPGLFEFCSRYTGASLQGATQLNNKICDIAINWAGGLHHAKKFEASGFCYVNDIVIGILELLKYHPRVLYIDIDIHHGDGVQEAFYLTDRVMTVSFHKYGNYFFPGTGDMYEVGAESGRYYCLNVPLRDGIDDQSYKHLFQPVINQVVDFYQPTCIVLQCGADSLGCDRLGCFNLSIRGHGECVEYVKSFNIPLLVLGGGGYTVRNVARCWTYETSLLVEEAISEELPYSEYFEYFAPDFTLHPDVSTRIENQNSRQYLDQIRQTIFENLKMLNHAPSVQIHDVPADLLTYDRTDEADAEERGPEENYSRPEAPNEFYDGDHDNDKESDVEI
T1 sequence (Q9Y618 395-489 partner limits assumed): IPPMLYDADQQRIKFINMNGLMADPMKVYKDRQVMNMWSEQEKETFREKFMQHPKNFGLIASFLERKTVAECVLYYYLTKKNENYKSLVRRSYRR
Procedure: (§1) In Vitro Inhibitory Activity of Histone Deacetylase: Human Isoforms HDAC1, 2, 3, 4, 5, 6, 7, 8, 9, 10 and 11 and HeLa Cell Line Nuclear Extract (IC50 Data)
(§2) All HDAC assays were performed using acetylated AMC-labeled peptide substrate: • Substrate for isoforms HDAC1, 2, 3, 6, 10, 11 and HeLa nuclear extract assays: Acetylated fluorogenic peptide from p53 residues 379-382 (RHKKAc). • Substrate for isoforms HDAC 4, 5, 7, 9: Fluorogenic Boc-L-Lys(ε-trifluoroacetyl)-AMC. • Substrate for HDAC8 assays: Acetylated fluorogenic peptide from p53 residues 379-382 (RHKAcKAc).
(§3) 50 μM of substrate peptide (see ‘substrate peptides’ section above) and an optimal concentration of the corresponding enzyme (see ‘enzymes’ section above) in the assay buffer and 1% final concentration of DMSO were incubated in the presence of gradient concentrations of inhibitors (10-dose IC50 mode with 3-fold serial dilution) at 30° C. for 2 h. The reactions were carried out in a 96-well microplate for fluorometry in a 50 μl reaction volume. After the deacetylation reaction, Fluor-de-Lys-Developer (BioMol Cat. # KI-105) was added to each well to digest the deacetylated substrate, thus producing the fluorescent signal. The reaction was allowed to develop for 45 minutes at 30° C. with 5% CO2; then the fluorescent signal was measured with an excitation wavelength at 360 nm and an emission wavelength at 460 nm in a microplate-reading fluorometer (GeminiXS; Molecular Devices, Sunnyvale, Calif.). A curve of Deacetylated Standard (Biomol, Cat. # KI-142; made from 100 μM with 1:2 dilution and 10-doses, 6 μl) allowed the conversion of fluorescent signal into micromoles of deacetylated product. All experiments were performed in triplicate. IC50 was calculated by fitting the experimental data to a dose-response curve. DMSO was used as negative control; Trichostatin A (Biomol Cat. # GR-309) was used as positive control inhibitor.

[2] = target: T2, Human HDAC4 (Homo sapiens, UniProt P56524); assay: In vitro HDAC4 inhibition, fluorogenic substrate; conditions: read-out: IC50 (μM) HDAC-4
T2 construct: Amino acids 627-1085 with N-terminal GST tag, MW=75.2 kDa; GST (N); purchased BioMol, Hamburg, Germany; host or cells: baculovirus expression system
T2 sequence (P56524 627-1084 limits assumed): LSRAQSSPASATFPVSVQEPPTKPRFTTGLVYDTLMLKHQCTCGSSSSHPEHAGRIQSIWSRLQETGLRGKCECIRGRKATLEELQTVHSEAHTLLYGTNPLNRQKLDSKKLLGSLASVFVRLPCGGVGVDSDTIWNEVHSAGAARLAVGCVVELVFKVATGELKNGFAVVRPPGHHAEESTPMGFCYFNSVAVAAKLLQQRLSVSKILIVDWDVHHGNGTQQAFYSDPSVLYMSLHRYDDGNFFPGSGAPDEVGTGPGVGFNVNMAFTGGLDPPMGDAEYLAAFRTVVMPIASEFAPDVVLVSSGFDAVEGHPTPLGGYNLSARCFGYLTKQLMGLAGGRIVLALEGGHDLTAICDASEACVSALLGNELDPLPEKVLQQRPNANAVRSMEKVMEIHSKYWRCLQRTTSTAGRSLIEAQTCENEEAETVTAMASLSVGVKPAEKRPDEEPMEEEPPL
Procedure: as §1, §2, §3

[3] = target: T3, Human HDAC7 (Homo sapiens, UniProt Q8WUI4); assay: In vitro HDAC7 inhibition, fluorogenic substrate; conditions: read-out: IC50 (μM) HDAC-7
T3 construct: Amino acids 518-end with N-terminal GST tag, MW=78 kDa; GST (N); purchased BioMol, Hamburg, Germany; host or cells: baculovirus expression system
T3 sequence (Q8WUI4 518-952 limits assumed): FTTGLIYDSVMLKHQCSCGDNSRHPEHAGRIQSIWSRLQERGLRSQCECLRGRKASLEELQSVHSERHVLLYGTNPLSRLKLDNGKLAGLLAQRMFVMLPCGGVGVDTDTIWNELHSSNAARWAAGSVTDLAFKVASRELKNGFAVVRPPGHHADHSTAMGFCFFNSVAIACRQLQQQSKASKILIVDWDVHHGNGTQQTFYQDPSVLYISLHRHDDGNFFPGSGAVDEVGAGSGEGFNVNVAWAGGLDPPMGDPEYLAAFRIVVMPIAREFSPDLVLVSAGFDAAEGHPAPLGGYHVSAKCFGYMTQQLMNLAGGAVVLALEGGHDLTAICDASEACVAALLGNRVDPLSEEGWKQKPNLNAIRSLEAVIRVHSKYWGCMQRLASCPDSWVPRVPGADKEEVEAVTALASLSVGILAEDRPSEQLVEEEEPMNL
Procedure: as §1, §2, §3

SMILES | IC50 [1] | IC50 [2] | IC50 [3]
O=C(CCCCCCNc1c2c(nc3ccccc13)CCCCC2)NO [Example 4, N-hydroxy-7-[(7,8,9,10-tetrahydro-6H-cyclohepta[b]quinolin-11-yl)amino]heptanamide] | 0.74 µM | > 5 µM | > 5 µM
O=C(CCCCCCNc1c2c(nc3ccccc13)CCC2)NO [Example 3, 7-[(2,3-dihydro-1H-cyclopenta[b]quinolin-9-yl)amino]-N-hydroxyheptanamide] | 0.36 µM | > 5 µM | > 5 µM
O=C(CCCCCNc1c2c(nc3ccccc13)CCCC2)NO [Example 1, N-hydroxy-6-[(1,2,3,4-tetrahydroacridin-9-yl)amino]hexanamide] | 2.84 µM | 6.19 µM | 4.55 µM
O=C(CCCCCCNc1c2c(nc3ccccc13)CCCC2)NO [Example 2, N-hydroxy-7-[(1,2,3,4-tetrahydroacridin-9-yl)amino]heptanamide] | 0.42 µM | > 5 µM | 0.77 µM

Next, values leading:

IC50 [1] | IC50 [2] | IC50 [3] | SMILES
3.62 µM | > 5 µM | > 5 µM | O=C(CCCCCCNC(=O)c1c2c(nc3ccccc13)CCCC2)NO [Example 11, N-[7-(hydroxyamino)-7-oxoheptyl]-1,2,3,4-tetrahydroacridine-9-carboxamide]
> 5 µM | > 5 µM | > 5 µM | O=C(CCCCCNC(=O)c1c2c(nc3ccccc13)CCCC2)NO [Example 10, N-[6-(hydroxyamino)-6-oxohexyl]-1,2,3,4-tetrahydroacridine-9-carboxamide]
0.66 µM | > 5 µM | > 5 µM | COc1cccc2c(NCCCCCCC(=O)NO)c3c(nc12)CCCC3 [Example 5, N-hydroxy-7-[(5-methoxy-1,2,3,4-tetrahydroacridin-9-yl)amino]heptanamide]
1.88 µM | > 5 µM | > 5 µM | O=C(CCCCCCNc1c2c(nc3cnccc13)CCCC2)NO [Example 8, N-hydroxy-7-[(6,7,8,9-tetrahydrobenzo[b][1,7]naphthyridin-5-yl)amino]heptanamide]
2.44 µM | > 5 µM | > 5 µM | O=C(CCCCCCNc1c2c(nc3ncccc13)CCCC2)NO [Example 7, N-hydroxy-7-[(6,7,8,9-tetrahydrobenzo[b][1,8]naphthyridin-5-yl)amino]heptanamide]
